Measurements as given in paper PMC11167521, “Inhibition of neuraminidase-1 sialidase activity by interfering peptides impairs insulin receptor activity in vitro and glucose homeostasis in vivo” (The Journal of Biological Chemistry, 2024).
Blank lines part the entries; values can stand above or below the substance they belong to. No end group written: not given here.

Key:
[1] = molecular target: T1, membrane NEU-1 in HepG2 cells (Homo sapiens, UniProt Q99519); test: Colocalization of fluorescent peptide with NEU-1 by confocal microscopy; type: cell-based; conditions: fixed HepG2 cells, 0.1 μM in LDS micelles, 1 h, n = 3
T1 construct: HepG2 endogenously expresses IR and NEU-1; endogenous in cells; host or cells: HepG2 (ATCC HB-8065)
Procedure: IntPeps coupled with FITC and solubilized in LDS micelles have been incubated at 0.1 μM for 1 h with fixed HepG2 cells.
HepG2 cells were seeded onto coverslips in 24-well plates at 50,000 cells/well. After 24 h, cells were fixed with paraformaldehyde 1% (Euromedex) for 5 min followed by a second incubation with paraformaldehyde 2% for 10 min at room temperature (RT). Cells were washed twice for 5 min with PBS and permeabilized with Triton 0.2% during 5 min at RT. A total of 3% bovine serum albumin (BSA) was disposed in each well for 1 h at RT after three washes with PBS for 5 min. Cells were then incubated with NEU-1 mouse monoclonal antibody (1/200 in PBS with 3% BSA) (Santa Cruz Biotechnology) for 2 h at RT. Then, this solution was removed, and the cells were incubated with anti-mouse secondary antibody coupled with Alexa Fluor 568 (1/1000 in PBS with 3% BSA) (Invitrogen) for 2 h at RT in the dark. After washes, cells were incubated with IntPeps coupled with FITC (0.1 μM) or with FITC alone (0.1 μM) at RT in the dark. Coverslips were then mounted in a medium containing 4′,6-diamidino-2-phenylindole (Prolong gold, antifade, Invitrogen). Slides were finally observed using confocal microscopy (Zeiss LSM 710) and featured slices were analyzed with Image J software (https://imagej.net/ij/download.html).

[2] = system: HepG2 cells; test: MTT cell viability assay, HepG2 cells; type: cell-based, human; conditions: peptide 0.1 μM in LDS micelles, 3 h and 24 h, compared to control without treatment, n = 3-4
Procedure: (§1) The concentration of 0.1 μM and two incubation times, 3 h (Fig. S1, A and C) and 24 h (Fig. S1, B and D) have been tested. […] The choice of this concentration was based on the previous study by Albrecht et al. ([31]).
(§2) HepG2 cell line and COS-7^IR cells were, respectively, harvested in 96-well plates at a cell density of 80,000 cells/well and 10,000 cells/well. After 24 h, cells were incubated with IntPep-RKR or mutIntPep-RKR at 0.1 μM or only with LDS micelles during 3 h or 24 h. Then, the medium has been removed and cells were incubated in the dark during 4 h at 37 °C with a 3-(4-5-dimethylthiazol-2-yl) -2,5-diphenyltetrazolium bromide solution (MTT, Sigma, 5 mg/ml) diluted in PBS (one-sixth v/v). The medium was removed, and 100 μl of dimethyl sulfoxide were added in each well. Cell viability was measured at 570 nm with Infinite F200 Pro (TECAN) hardware using Magellan software (https://lifesciences.tecan.com/software-magellan?p=tab--2).
(§3) HepG2 cells (A,B) and COS-7 cells
(§4) overexpressing IR (C,D) were incubated with mutIntPep-RKR, IntPep-RKR (0.1 µm) or LDS
(§5) micelles for 3h (A,C) or for 24h (B,D).
(§6) ZS equipment (Malvern Panalytical, UK). Water was used as a reference dispersing medium.
(§7) Micelles sizes were expressed in volume (as the diameter of a theorical sphere in nanometer),

[3] = system: COS-7 cells overexpressing IR (COS-7^IR); test: MTT cell viability assay, COS-7 cells overexpressing IR; type: cell-based, African green monkey; conditions: peptide 0.1 μM in LDS micelles, 3 h and 24 h, compared to control without treatment, n = 3-4
Procedure: as §1, §2, §3, §4, §5, §6, §7

[4] = system: C57Bl/6J mice; test: Biodistribution of fluorescent peptide in mice (fluorescence molecular tomography); type: in vivo, mouse; conditions: 100 μg/kg i.p. twice per week
Procedure: (§8) Experiments procedures were evaluated by research ethics committee of the University of Reims Champagne-Ardenne and approved by the French Ministry of Higher Education, Research and Innovation (APAFis #33891-2021111016547019). Five C57Bl/6J male and five female mice (Janvier Labs), aged 6 weeks, were maintained in a 12/12-h light/dark cycle and in a temperature and humidity-controlled environment. All mice had ad libitum access to a diet without chlorophyll (#U8959, SAFE diet) and water during the experimental period. Mice weight was measured twice per week throughout treatment. Weight gain or loss was then calculated and normalized to the weight measurement of the first week. The food intake was evaluated with weight feeders during the last week of treatment and every day. This weight was then divided by the number of mice in each cage.
(§9) Treatments have been started when mice were aged 8 weeks. Mice were under diet without chlorophyll (#U8959, SAFE diet) 2 weeks before the beginning of treatments to minimize the background noise of fluorescence measurements. LDS micelles or Cy5-IntPep-RKR were prepared as described previously and injected intraperitoneally at 100 μg/kg twice per week (100 μl).
Fluorescence measurements in entire body were realized in 13 mm cassette under isoflurane anesthesia (with PerkinElmer fluorescence molecular tomography 4000) at first, second, fifth, seventh, and eighth weeks of the treatment and 15 min after injection of fluorescent peptides. Organs were collected at the end of the treatment and placed on another cassette to measure their fluorescence with the same device. To remove the potential autofluorescence of certain organs, organ fluorescence of mice receiving LDS micelle injection (twice per week at 100 μg/kg) was measured and subtracted to those of mice receiving Cy5-IntPep-RKR. The measurement of organ fluorescence has been converted in ng of peptides per gram of organ and represented in % of peptides per organ. The software TrueQuant has been used for analyzes (https://www.perkinelmer.com.cn/lab-products-and-services/resources/in-vivo-imaging-software-downloads.html?_ga=2.29909951.1041849854.1637318373-1604795059.1637318373). The geometric size of the region of interest (ROI) background was between 40 and 41.5 mm^3, and one of the ROI was between 7900 and 8100 mm^3 in the entire body. The geometric size of the ROI background was the same in organ per organ biodistribution and one of the ROI for each organ approximatively as followed: the adipose tissue (1825 mm^3), the spleen (1095 mm^3), the stomach (2555 mm^3), the bladder (594 mm^3), the muscle (1142 mm^3), the liver (3379 mm^3), and the kidneys (1946 mm^3).

[5] = system: C57Bl/6J mice; test: Glycemia measurement in mice; type: in vivo, mouse
Procedure: as §9
A slight incision at tail was made to collect a drop of blood (<10 μl). The nonfasted blood glucose was then measured under anesthesia for all groups with Contour Plus device and reactive strips before injection and 30 min after injection of LDS micelles or Cy5-IntPep-RKR at 100 μg/kg. Data were then normalized for each group by comparison with glycemia value before injection.

[6] = system: C57Bl/6J mice; test: Weight and food intake during 8 weeks of treatment in mice; type: in vivo, mouse; conditions: compared to LDS micelles
Procedure: as §8, §9

[7] = system: C57Bl/6J mice; test: Systemic and cellular toxicity, plasma AST, CRP and LDH in mice; type: in vivo, mouse
Procedure: as §8, §9
Blood samples were collected before and after 8-weeks treatment, respectively, with LDS micelles or Cy5-IntPep-RKR by retroorbital and intracardiac pathway with sterile heparin Pasteur pipets and sterile needle in lithium heparin MiniCollect tubes (Greiner Bio-One). Animals were under isoflurane anesthesia during blood recovery. After centrifugation (3000 rpm, 10 min), plasma samples were then recovered in 1.5 ml eppendorfs and conserved at −20 °C. Finally, these samples were sent to the Institut Clinique de la Souris (Illkirch, France) to quantify several parameters as AST, CRP, and LDH. Graphics represent the percentages of observed variation between values obtained before and after 8-weeks treatment with LDS micelles or Cy5-IntPep-RKR.

[8] = molecular target: T2, membrane NEU-1 (Homo sapiens, UniProt Q99519); test: Membrane NEU-1 sialidase activity, COS-7^IR/NEU-1 crude membranes (Muf-NANA); type: biochemical; set-up: host or cells: COS-7 (ATCC CRL-1651) or COS-7^IR, transient transfection, 72 h; conditions: COS-7^IR/NEU-1 crude membrane, 0.1 μM, 15 min, compared to mutIntPep-RKR, n = 4-5, mean ± SEM
Description: (§10) Plasmid encoding human IR was a gift from Dr Tarik Issad (Institut Cochin, Paris, France) and plasmid encoding human PPCA protein was provided by Pr. Alessandra d’Azzo (St Jude Children's Research Hospital, Memphis, USA). These two plasmids have been previously described ([50], [51]). Plasmid encoding human NEU-1 was purchased from ImaGenes GmbH. For cell transfections, JetPEI DNA transfection reagent was purchased from Polyplus transfection. […] HepG2 cells were harvested in 1 g/L glucose Dulbecco’s modified Eagle’s medium supplemented with 10% heat inactivated fetal bovine serum, 100 units/ml penicillin, 0,1 mg/ml streptomycin at 37 °C in a humidified atmosphere at 5% CO2. COS-7 cells were maintained in culture in 4.5 g/L glucose Dulbecco’s modified Eagle’s medium supplemented with 10% heat-inactivated fetal bovine serum, 100 units/ml penicillin, 0.1 mg/ml streptomycin at 37 °C in a humidified atmosphere at 5% CO2. COS-7 cells have been stably transfected with plasmid encoding human IR. Geneticin selection (400 μg/ml) has been made after transfection to obtain a stable cell line overexpressing IR named COS-7^IR. Geneticin (80 μg/ml) were added in the completed medium to maintain this cell line. […]

[9] = molecular target: T2, membrane NEU-1; test: Membrane NEU-1 sialidase activity, HepG2 crude membranes (Muf-NANA); type: biochemical; conditions: 0.1 μM, 15 min incubation, compared to mutIntPep-RKR at same concentration, n = 4-5, mean ± SEM
Procedure: HepG2 cells grown in 75 cm^2 flasks and COS-7 cell lines grown in 10 cm Petri dishes were washed twice with cold PBS and resuspended with 1 ml cold TEM buffer extemporaneously completed with 1% (v/v) protease inhibitor cocktail, 10 mM NaF, 2 mM Na3VO4. After sonication, samples were centrifuged at 600g for 10 min at 4 °C to remove nonlysed cells and nuclei. Supernatants were extracted and centrifuged at 20,000g for 45 min at 4 °C. Crude membrane-containing pellets were then resuspended in 400 μl Mes buffer (2-(N-morpholino) ethanesulfonic acid hydrate, 20 mM, pH 4.5). Protein concentration was then determined by bicinchoninic acid assay to measure sialidase activity from 50 μg of crude membrane proteins. Samples were incubated with peptides for 15 min on ice. Muf-NANA (2′-(4-MethylUmbelliFeryl)-alpha-D-N-AcetylNeuraminic Acid) (Biosynth) at a concentration of 400 μM was then added and incubated with samples for 2 h at 37 °C in the dark. The reaction was then stopped by adding Na2CO3 (Merck). A total of 150 μl of each sample were finally transferred in black 96 well plates. Emitted fluorescence was measured with Infinite F200 Pro (TECAN) hardware and Magellan software (excitation: 360 nm/emission: 465 nm) (https://lifesciences.tecan.com/software-magellan?p=tab--2).

[10] = molecular target: T2, membrane NEU-1; test: Membrane NEU-1 sialidase activity, COS-7^NEU-1 crude membranes (Muf-NANA); type: biochemical; set-up: host or cells: COS-7 (ATCC CRL-1651) or COS-7^IR, transient transfection, 72 h; conditions: COS-7^NEU-1 crude membrane, 0.1 μM, 15 min, compared to mutIntPep-RKR, n = 4-5, mean ± SEM
Description: as §10

[11] = molecular target: T3, membrane NEU-1 dimers (Homo sapiens, UniProt Q99519); test: NEU-1 dimerization in HepG2 cell membrane extracts (Western blot); type: biochemical; conditions: 0.1 μM, n = 4, mean ± SEM
T3 construct: HepG2 endogenously expresses IR and NEU-1; endogenous in cells; host or cells: HepG2 (ATCC HB-8065)
Procedure: HepG2 cells grown in 75 cm^2 flasks at 80% of confluence were washed twice with cold PBS and resuspended with 1 ml cold TEM buffer (75 mM Tris, 2 mM EDTA, 12 mM MgCl2, at pH 7,5) extemporaneously completed with 1% (v/v) protease inhibitor cocktail, 10 mM NaF, and 2 mM Na3VO4. After sonication, samples were centrifuged at 600g for 10 min at 4 °C to remove unlysed cells and nuclei. Supernatants were collected and centrifuged at 20,000g for 45 min at 4 °C. Crude membrane-containing pellets were then resuspended in TEM buffer supplemented with 1% (w/v) CHAPS {3-[(3-cholamidopropyl) dimethylammonio]-1-propanesulfonate} (Sigma-Aldrich). Cell membranes were then incubated with peptides at 0.1 μM and solubilized for 3 h at 4 °C under gentle end-over-end mixing. Supernatants were recovered after a centrifugation step (20,000g, 45 min, and 4 °C). These samples were then used for Western blot analyzes.
Protein samples were diluted in Laemmli buffer (500 mM Tris, 10% (w/v) SDS, 20% saccharose (w/v), 0.5% (w/v) bromophenol blue, 10% (v/v) β-mercaptoethanol, pH 6.8) and heated for 5 min at 100 °C. […]
Chemiluminescent protein detection was done by using ECL Prime Kit (GE Healthcare, Orsay, France). […] Quantification of bands intensity has been made using Image Studio Lite software (https://www.licor.com/bio/image-studio/).

[12] = after 8 weeks, organ fluorescence, n = 10, mean ± SEM
[13] = 100 μg/kg i.p. twice per week for 8 weeks, versus LDS micelles group

Substance: FITC-LC- E312LVDPVVAAGAVVTSSGIVFFS333-RKR [FITC-IntPep-RKR, IntPeps coupled with FITC and solubilized in LDS micelles]
- colocalization with NEU-1 [1]: colocalization areas at the plasma membrane

Substance: ELVDPVVVAIAVVTSSIIAFFSRKR [mutIntPep-RKR]
- cell toxicity (cell viability, MTT) [2]: do not induce cell toxicity
- cell toxicity (cell viability, MTT) [3]: do not induce cell toxicity

Substance: H-C(Cy5)-E312LVDPVVAAGAVVTSSGIVFFSRKR333-NH2 [Cy5-IntPep-RKR, IntPeps coupled with cyanine-5, injected in LDS micelles]
- whole body fluorescence distribution ([4]; 15 min after injection, weeks 1,2,5,7 and 8): well distributed in the whole organism
- % of peptides per organ, white adipose tissue ([4]; after 8 weeks, organ fluorescence minus autofluorescence, n = 10, mean ± SEM): 29.2% ± 9%
- % of peptides per organ, bladder [4, 12]: 18.52% ± 5.7%
- % of peptides per organ, kidneys [4, 12]: 5.33% ± 2.1%
- % of peptides per organ, liver [4, 12]: 6.13% ± 2.5%
- % of peptides per organ, muscle [4, 12]: 17 ± 4.25%
- % of peptides per organ, spleen [4, 12]: 17.05% ± 3.7%
- increase of blood glucose after peptide injection ([5]; C57Bl/6J mice without fasting, isoflurane anesthesia, 30 min after i.p. injection at 100 μg/kg, compared to before injection, n = 10, mean ± SEM): about 44.5% ± 10.4%
- blood glucose level, mice fasted for 4 h or fed ([5]; C57Bl/6J mice, 8 weeks of treatment at 100 μg/kg twice per week, versus LDS micelles group, n = 10 per group): no difference of blood glucose level
- weight ([6]; 100 μg/kg i.p. twice per week, 8 weeks, n = 10 per group): do not induce modification of weight
- food intake ([6]; last week of 8-week treatment, n = 6): do not impair the food intake
- plasma aspartate transaminase (AST) activity [7, 13]: No significant difference
- plasma expression level of C-reactive protein (CRP) [7, 13]: No significant difference
- plasma lactate dehydrogenase (LDH) activity [7, 13]: No significant difference
- decrease of CRP level ([7]; 100 μg/kg i.p. twice per week, comparing data before and after 8-week treatment, mean ± SEM): 21.11% ± 3.1%
- toxicity and inflammation ([7]; 8-week treatment, two injections per week at 100 μg/kg): did not induce toxicity and inflammation

- decrease of membrane NEU-1 sialidase activity [8]: 18.1% ± 2.9%
- decrease of membrane NEU-1 sialidase activity [9]: 32.6% ± 5.7%
- decrease of membrane NEU-1 sialidase activity [10]: 35.3% ± 7.6%
- decrease of the formation of NEU-1 dimers ([11]; HepG2 cell membrane extracts, 3 h at 4 °C, compared to mutIntPep-RKR): 30.7% ± 5.6%
- decrease of the ratio NEU-1 dimers/NEU-1 monomers ([11]; HepG2 cell membranes, normalized to mutIntPep-RKR condition): 42.4% ± 7.3%
Substance: ELVDPVVAAGAVVTSSGIVFFSRKR [IntPep-RKR]
- cell toxicity (cell viability, MTT) [2]: do not induce cell toxicity
- cell toxicity (cell viability, MTT) [3]: do not induce cell toxicity
